Assay results taken from patent US20260176254A1, “INHIBITORS OF PROSTATE SPECIFIC MEMBRANE ANTIGEN AND USE THEREOF” (SHANGHAI SINOTAU BIOTECH. CO., LTD, priority 2023, published 2026).

Key:
[1] = biological target: T1, recombinant human PSMA (rhPSMA) (Homo sapiens, UniProt Q04609); assay: Naaladase assay (fluorescence-based Naaladase activity inhibition); format: biochemical; conditions: rhPSMA 0.4 μg/mL, substrate N-Acetyl-Asp-Glu 40 μM, 37° C. one hour
T1 construct: purchased Sino Biological
Description: Naaladase activity inhibition was determined using a fluorescence-based assay. Briefly, the solution containing the substrate N-Acetyl-Asp-Glu (Sigma-Aldrich) at 40 μM and the compound at concentrations from 0.15 nM to 1000 nM was mixed at equal volume with recombinant human PSMA (rhPSMA, Sino Biological) at 0.4 μg/mL, in assay buffer (50 mM HEPES, 100 mM NaCl, pH 7.5). The enzymatic reaction was proceeded by incubation at 37° C. for one hour and then stopped by heating at 95° C. for 5 minutes. A solution of 15 mM ortho-phthaldialdehyde (Sigma-Aldrich) was added to all vials and incubated for 10 min at ambient temperature. The reaction solutions were loaded onto a 96-well flat clear bottom black microplates (Corning) and read at excitation and emission wavelengths of 330 and 450 nm, respectively, using a microplate reader (Tecan). The data were analyzed by a one-site total binding regression algorithm of GraphPad Prism (GraphPad Software).

LNCaP cells = assay: Cell uptake assay of 177Lu-labeled compound; format: cell-based; conditions: for Membrane (%): cell membrane fraction; for Intracellular (%): intracellular fraction
Description: LNCaP (ATCC) cells were cultured in RPMI 1640 medium (Gibco) containing 10% fetal bovine serum (FBS) (Gibco), in 5% carbon dioxide (CO2), at 37.0° C. in a humidified incubator. 2×10^5 LNCaP cells/well were seeded in a 24-well plate the day before experiment. 7.4 KBq (200 nCi) of ^177Lu-labeled compound was added into each well, and then incubated in 37° C., 5% CO2 incubator for varying durations. At each time point, the supernatant, cell membrane and intracellular fractions were collected. The cell membrane fraction was recovered by incubating cells with buffer containing 50 mM glycine and 100 mM NaCl, pH 2.7 for 10 minutes at 37° C., while the intracellular fraction was recovered from cells treated with 1M NaOH. Activity of ^177Lu-labelled compound in every component was detected by gamma counter.

T1 sequence (Q04609 whole entry): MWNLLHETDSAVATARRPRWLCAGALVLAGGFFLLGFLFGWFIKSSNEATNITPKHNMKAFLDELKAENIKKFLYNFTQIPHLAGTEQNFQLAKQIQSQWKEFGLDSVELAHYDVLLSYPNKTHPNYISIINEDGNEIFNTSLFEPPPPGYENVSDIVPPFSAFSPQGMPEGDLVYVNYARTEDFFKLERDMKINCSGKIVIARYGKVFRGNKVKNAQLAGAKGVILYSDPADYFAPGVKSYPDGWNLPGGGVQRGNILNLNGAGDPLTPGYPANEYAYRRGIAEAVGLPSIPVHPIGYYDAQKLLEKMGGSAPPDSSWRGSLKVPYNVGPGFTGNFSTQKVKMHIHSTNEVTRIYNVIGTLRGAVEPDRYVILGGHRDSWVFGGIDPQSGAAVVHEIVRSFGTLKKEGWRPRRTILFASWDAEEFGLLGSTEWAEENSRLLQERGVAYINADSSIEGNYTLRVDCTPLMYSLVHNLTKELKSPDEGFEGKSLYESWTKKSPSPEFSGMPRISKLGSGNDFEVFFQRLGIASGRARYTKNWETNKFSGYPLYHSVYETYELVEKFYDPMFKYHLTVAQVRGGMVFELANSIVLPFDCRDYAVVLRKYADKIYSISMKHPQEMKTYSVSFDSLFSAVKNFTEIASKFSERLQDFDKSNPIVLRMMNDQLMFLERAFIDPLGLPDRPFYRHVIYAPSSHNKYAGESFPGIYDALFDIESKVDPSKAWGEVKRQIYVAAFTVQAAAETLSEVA

Compound	IC50 [1]	Membrane (%) (LNCaP cells; 1 hr)	Membrane (%) (LNCaP cells; 4 hr)	Membrane (%) (LNCaP cells; 24 hr)	Intracellular (%) (LNCaP cells; 1 hr)	Intracellular (%) (LNCaP cells; 4 hr)	Intracellular (%) (LNCaP cells; 24 hr)
O=C(O)CN1CCN(CC(=O)O)CCN(Cc2nnc(C34CCC(Nc5c(N[C@@H](Cc6c7ccccc7cc7ccccc67)C(=O)NCCCC[C@H](NC(=O)N[C@@H](CNC(=O)C(=O)O)C(=O)O)C(=O)O)c(=O)c5=O)(CC3)CC4)o2)CCN(CC(=O)O)CC1 [E9]	1 nM	5.0%	9.7%	10.1%	12.4%	40.4%	72.0%
O=C(O)CN1CCN(CC(=O)O)CCN(Cc2nnc([C@H]3CC[C@H](Nc4c(N[C@@H](Cc5c6ccccc6cc6ccccc56)C(=O)NCCCC[C@H](NC(=O)N[C@@H](CNC(=O)C(=O)O)C(=O)O)C(=O)O)c(=O)c4=O)CC3)o2)CCN(CC(=O)O)CC1 [E10]	1.7 nM	7.1%	10.5%	11.0%	16.9%	50.2%	76.7%
O=C(O)CCC[C@H](NC(=O)N[C@@H](CCCCNC(=O)[C@H](Cc1c2ccccc2cc2ccccc12)Nc1c(Nc2ccc3c(c2)CCN(C(=O)CN2CCN(CC(=O)O)CCN(CC(=O)O)CCN(CC(=O)O)CC2)C3)c(=O)c1=O)C(=O)O)C(=O)O [E14]	1.7 nM	9.7%	14.8%	12.9%	7.9%	25.1%	49.5%
